For the assay, the target named is T1, CDK4/cyclin D3 (Homo sapiens, UniProt P11802).
T1 construct: made in house; host or cells: insect cells (baculovirus co-infection)
Nature of the assay: Inhibition of CDK4/Cyclin D retinoblastoma kinase activity. Type of assay: biochemical. The following applies: for inhibition at 0.1 µM: read-out: % Inhib CDK4/D @ 0.1 μM; for inhibition at 1 µM: read-out: % Inhib CDK4/D @ 1 μM; for inhibition at 0.03 µM: read-out: % Inhib CDK4/D @ 0.03. On the procedure: Cyclin-dependent kinase activity was measured by quantifying the enzyme-catalyzed, time-dependent incorporation of radioactive phosphate from [^32P]ATP or [^33P]ATP into a protein substrate. Unless noted otherwise, assays were performed in 96-well plates in a total volume of 50 μL, in the presence of 10 mM HEPES (N-[2-hydroxyethyl]piperazine-N′-[2-ethanesulfonic acid]) (pH 7.4), 10 mM MgCl2, 25 μM adenosine triphosphate (ATP), 1 mg/mL ovalbumin, 5 μg/mL leupeptin, 1 mM dithiothreitol, 10 mM β-glycerophosphate, 0.1 mM sodium vanadate, 1 mM sodium fluoride, 2.5 mM ethylene glycol-bis(β-aminoethyl ether)-N,N,N′N′-tetraacetic acid (EGTA), 2% (v/v) dimethylsulfoxide, and 0.03-0.4 μCi [^32/33P]ATP per reaction. Reactions were initiated with enzyme, incubated at 30° C., and terminated after 20 minutes by the addition of ethylenediaminetetraacetic acid (EDTA) to 250 mM. The phosphorylated substrate was then captured on a nitrocellulose or phosphocellulose membrane using a 96-well filtration manifold, and unincorporated radioactivity was removed by repeated washing with 0.85% phosphoric acid. Radioactivity was quantified by exposing the dried membranes to a phosphorimager.
Inhibition was measured relative to control wells that contained all reaction components including 2% (v/v) DMSO but no compound, after subtraction of background radioactivity measured in the absence of enzyme. Apparent Ki values of discrete compounds were measured by assaying enzyme activity in the presence of different inhibitor compound concentrations and subtracting the background radioactivity measured in the absence of enzyme. The kinetic parameters (kcat, Km for ATP) were measured for each enzyme under the usual assay conditions by determining the dependence of initial rates on ATP concentration. Inhibition data were fit to an equation for competitive inhibition using Kaleidagraph (Synergy Software), or were fit to an equation for competitive tight-binding inhibition using the software KineTic (BioKin, Ltd.).
A complex of human CDK4 and genetically truncated (1-264) cyclin D3 was purified using traditional biochemical chromatographic techniques from insect cells that had been co-infected with the corresponding baculovirus expression vectors (see e.g., Meijer and Kim, “Chemical Inhibitors of Cyclin-Dependent Kinases,” Methods in Enzymol., 283, 113-128 (1997)). The enzyme complex (5 nM) was assayed with 0.3-0.5 μg of purified recombinant retinoblastoma protein fragment (Rb) as a substrate. The engineered Rb fragment (residues 386-928 of the native retinoblastoma protein; 62.3 kDa) contains the majority of the phosphorylation sites found in the native 106-kDa protein, as well as a tag of six histidine residues for ease of purification. Phosphorylated Rb substrate was captured by microfiltration on a nitrocellulose membrane and quantified using a phosphorimager as described above. For measurement of tight-binding inhibitors, the assay duration was extended to 60 minutes, during which the time-dependence of product formation was linear and initial rate conditions were met.

The mark [1] stands for this setting: test compound at 1 μM (head line shifted: 'mM' printed beside 'Structure').
Where [2] appears, read: test compound at 0.03 (unit cell empty, head line shifted; μM).

The structures appear in SMILES notation.

T1 sequence (P11802 whole entry): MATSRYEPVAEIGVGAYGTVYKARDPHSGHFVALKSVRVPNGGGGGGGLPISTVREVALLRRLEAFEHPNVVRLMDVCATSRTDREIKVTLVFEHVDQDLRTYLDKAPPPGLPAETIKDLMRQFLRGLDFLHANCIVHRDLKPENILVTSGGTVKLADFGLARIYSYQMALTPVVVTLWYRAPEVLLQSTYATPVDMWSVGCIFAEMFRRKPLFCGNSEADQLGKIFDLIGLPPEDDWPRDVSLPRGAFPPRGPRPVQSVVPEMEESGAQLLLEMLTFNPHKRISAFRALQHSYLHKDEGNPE
T1 sequence (P30281 1-264 partner limits assumed): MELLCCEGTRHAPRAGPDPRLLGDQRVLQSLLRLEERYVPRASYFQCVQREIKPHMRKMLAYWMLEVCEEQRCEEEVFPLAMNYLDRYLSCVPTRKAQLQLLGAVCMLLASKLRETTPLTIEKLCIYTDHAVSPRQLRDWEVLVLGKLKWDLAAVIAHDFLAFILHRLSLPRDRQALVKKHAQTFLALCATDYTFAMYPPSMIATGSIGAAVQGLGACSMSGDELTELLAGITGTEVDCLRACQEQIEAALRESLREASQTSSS

On to `CCN(CC)C(=O)CSc1ccc(Nc2nc(N)c(C(=O)c3c(Cl)cccc3Cl)s2)cc1` [DD(1)], for which, where the note is “test compound at 0.1 μM”, the inhibition at 0.1 µM was -19%. In addition, the inhibition at 1 µM under setting [1] is 46.9%. Moreover, the inhibition at 0.03 µM under setting [2] was -34%.
Consider `Cc1noc(C)c1CSc1ccc(Nc2nc(N)c(C(=O)c3c(Cl)cccc3Cl)s2)cc1` [DD(2)], for which the inhibition at 0.1 µM (test compound at 0.1 μM) came out at 19%. Besides, the inhibition at 1 µM under setting [1] was 74%. In addition, the inhibition at 0.03 µM under setting [2] is 37%.
For `CC(CSc1ccc(Nc2nc(N)c(C(=O)c3c(Cl)cccc3Cl)s2)cc1)CN(C)C` (stereo not drawn) [DD(3)] the same measures were 0.2%, 43.6% and 8.1%.
For `COC(=O)/C=C/CSc1ccc(Nc2nc(N)c(C(=O)c3c(Cl)cccc3Cl)s2)cc1` [DD(4)] the same measures were 11%, 49.1% and 5.4%.
For the molecule `Nc1nc(Nc2ccc(SCCCO)cc2)sc1C(=O)c1c(Cl)cccc1Cl` [DD(5)], the inhibition at 0.1 µM (test compound at 0.1 μM) turned out to be 40%. The inhibition at 1 µM under setting [1] stood at 85.2%. Moreover, the inhibition at 0.03 µM under setting [2] turned out to be 21%.
The corresponding values for `C=CCCSc1ccc(Nc2nc(N)c(C(=O)c3c(Cl)cccc3Cl)s2)cc1` [DD(6)] are 20%, 48% and 22%.
The corresponding values for `Nc1nc(Nc2ccc(SCCN3CCCC3)cc2)sc1C(=O)c1c(Cl)cccc1Cl` [DD(7)] are 31%, 55% and 11%.
As for `Nc1nc(Nc2ccc(SCc3ncon3)cc2)sc1C(=O)c1c(Cl)cccc1Cl` [DD(8)], the inhibition at 0.1 µM (test compound at 0.1 μM) is 43%. Further, under setting [1], the inhibition at 1 µM amounted to 82.1%. Also, the inhibition at 0.03 µM under setting [2] was determined as 16%.
Consider `Nc1nc(Nc2ccc(SCC3CNC(=O)O3)cc2)sc1C(=O)c1c(Cl)cccc1Cl` (stereo not drawn) [DD(9)], for which the inhibition at 0.1 µM (test compound at 0.1 μM) is -14%. Besides, under setting [1], the inhibition at 1 µM was found to be 40.3%. Under setting [2], the inhibition at 0.03 µM is -28%.
For `CN(C)CCCSc1ccc(Nc2nc(N)c(C(=O)c3c(Cl)cccc3Cl)s2)cc1` [DD(10)] the same measures were 6.6%, 54.5% and 2.6%.
For `Nc1nc(Nc2ccc(SCCN3CCCCC3)cc2)sc1C(=O)c1c(Cl)cccc1Cl` [DD(11)] the same measures were 28%, 78.1% and 4.2%.
The corresponding values for `Nc1nc(Nc2ccc(SCC3CO3)cc2)sc1C(=O)c1c(Cl)cccc1Cl` (stereo not drawn) [DD(12)] are 19%, 72% and 3.9%.
For `CC(C)CCSc1ccc(Nc2nc(N)c(C(=O)c3c(Cl)cccc3Cl)s2)cc1` [DD(13)], the inhibition at 0.1 µM (test compound at 0.1 μM) is 4.7%. The inhibition at 1 µM under setting [1] came out at 35.3%. In addition, under setting [2], the inhibition at 0.03 µM amounted to 0.6%.
In the case of `COCCSc1ccc(Nc2nc(N)c(C(=O)c3c(Cl)cccc3Cl)s2)cc1` [DD(14)], where the note is “test compound at 0.1 μM”, the inhibition at 0.1 µM worked out at 41%. Also, the inhibition at 1 µM under setting [1] turned out to be 80%. Besides, the inhibition at 0.03 µM under setting [2] worked out at 18%.
The corresponding values for `Nc1nc(Nc2ccc(SCC(=O)Nc3ccccc3)cc2)sc1C(=O)c1c(Cl)cccc1Cl` [DD(15)] are 53%, 82% and 38%.
The corresponding values for `Nc1nc(Nc2ccc(SCC3CC3)cc2)sc1C(=O)c1c(Cl)cccc1Cl` [DD(16)] are -7%, 56.2% and -9.4%.
For `COc1cccc(CSc2ccc(Nc3nc(N)c(C(=O)c4c(Cl)cccc4Cl)s3)cc2)c1` [DD(17)] the same measures were -3%, 28.3% and -9.5%.
`Nc1nc(Nc2ccc(SCC3CCCO3)cc2)sc1C(=O)c1c(Cl)cccc1Cl` (stereo not drawn) [DD(18)]: the inhibition at 0.1 µM (test compound at 0.1 μM) worked out at 9.9%. Also, the inhibition at 1 µM under setting [1] is 70.6%. Besides, under setting [2], the inhibition at 0.03 µM was 10%.
Take `CN1CCCC1CCSc1ccc(Nc2nc(N)c(C(=O)c3c(Cl)cccc3Cl)s2)cc1` (stereo not drawn) [DD(19)]: the inhibition at 0.1 µM (test compound at 0.1 μM) was 19%. For the same molecule, the inhibition at 1 µM under setting [1] was 82.9%. The inhibition at 0.03 µM under setting [2] is -3%.
The corresponding values for `CC1(CSc2ccc(Nc3nc(N)c(C(=O)c4c(Cl)cccc4Cl)s3)cc2)CO1` (stereo not drawn) [DD(20)] are 6.8%, 68.2% and 4.2%.
The corresponding values for `NC(=O)CSc1ccc(Nc2nc(N)c(C(=O)c3c(Cl)cccc3Cl)s2)cc1` [DD(21)] are 67%, 85.5% and 50%.
`CCOC(=O)CCSc1ccc(Nc2nc(N)c(C(=O)c3c(Cl)cccc3Cl)s2)cc1` [DD(22)]: the inhibition at 0.1 µM (test compound at 0.1 μM) amounted to 9.1%. Further, the inhibition at 1 µM under setting [1] stood at 56.2%. Under setting [2], the inhibition at 0.03 µM came to 8.1%.
For `CC(C)OC(=O)CSc1ccc(Nc2nc(N)c(C(=O)c3c(Cl)cccc3Cl)s2)cc1` [DD(23)] the same measures were 37%, 72.1% and 19%.
The corresponding values for `CC(C)=CCSc1ccc(Nc2nc(N)c(C(=O)c3c(Cl)cccc3Cl)s2)cc1` [DD(24)] are -3%, 42.5% and -17%.
For `CCCSc1ccc(Nc2nc(N)c(C(=O)c3c(Cl)cccc3Cl)s2)cc1` [DD(25)] the same measures were 0.4%, 65.5% and -10%.
`COC(=O)CSc1ccc(Nc2nc(N)c(C(=O)c3c(Cl)cccc3Cl)s2)cc1` [DD(26)]: where the note is “test compound at 0.1 μM”, the inhibition at 0.1 µM is 65%. Moreover, under setting [1], the inhibition at 1 µM is 87.5%. Besides, under setting [2], the inhibition at 0.03 µM amounted to 9%.
Take `CN1CCCC(CSc2ccc(Nc3nc(N)c(C(=O)c4c(Cl)cccc4Cl)s3)cc2)C1` (stereo not drawn) [DD(27)]: the inhibition at 0.1 µM (test compound at 0.1 μM) is 10%. For the same molecule, the inhibition at 1 µM under setting [1] was found to be 58.7%. The inhibition at 0.03 µM under setting [2] was -2.6%.
The corresponding values for `NC(=O)CCSc1ccc(Nc2nc(N)c(C(=O)c3c(Cl)cccc3Cl)s2)cc1` [DD(28)] are 51%, 86.8% and 19%.
`NC(=O)CCSc1ccc(Nc2nc(N)c(C(=O)c3c(Cl)cccc3Cl)s2)cc1` [DD(29)]: for the setting “test compound at 0.1 μM, 0.1 µM”, the “% Inhib CDK4/D @ 0.1 μM” value stood at 50%. Further, under “test compound at 1 μM (head line shifted: 'mM' printed beside 'Structure'), 1 µM”, the “% Inhib CDK4/D @ 1 μM” value is 87.2%. Also, under setting [2], the “% Inhib CDK4/D @ 0.03” value was determined as 24%.
As for `CC(C)CCCSc1ccc(Nc2nc(N)c(C(=O)c3c(Cl)cccc3Cl)s2)cc1` [DD(30)], the inhibition at 0.1 µM (test compound at 0.1 μM) turned out to be 13%. Moreover, the inhibition at 1 µM under setting [1] was determined as 32.3%. The inhibition at 0.03 µM under setting [2] is 3.1%.
The corresponding values for `CC(C)CCOC(=O)CSc1ccc(Nc2nc(N)c(C(=O)c3c(Cl)cccc3Cl)s2)cc1` [DD(31)] are 30%, 59.7% and 15%.
For `CN(C)CCSc1ccc(Nc2nc(N)c(C(=O)c3c(Cl)cccc3Cl)s2)cc1` [DD(32)] the same measures were 14%, 61.3% and 5.5%.
The corresponding values for `CCOCCSc1ccc(Nc2nc(N)c(C(=O)c3c(Cl)cccc3Cl)s2)cc1` [DD(33)] are 21%, 64.7% and 8.1%.
For the molecule `Nc1nc(Nc2ccc(SCC(O)CO)cc2)sc1C(=O)c1c(Cl)cccc1Cl` (stereo not drawn) [DD(34)], the inhibition at 0.1 µM (test compound at 0.1 μM) amounted to 52%. Besides, the inhibition at 1 µM under setting [1] came to 89.3%. The inhibition at 0.03 µM under setting [2] came to 32%.
For `Nc1nc(Nc2ccc(SCc3ccncc3)cc2)sc1C(=O)c1c(Cl)cccc1Cl` [DD(35)] the same measures were 42%, 76.8% and 12%.

Values taken from patent US20040176431A1, “Antiproliferative 2-(sulfo-phenyl)-aminothiazole derivatives and pharmaceutical compositions, and methods for their use” (Pfizer, Inc., priority 2003, published 2004).
